Earlier results on one substance are cited in article PMC3030572, “Antamanide, a Derivative of Amanita phalloides, Is a Novel Inhibitor of the Mitochondrial Permeability Transition Pore” (PLoS ONE, 2011).

The subject of series [1] is IL-2-induced multisystem organ edema. The note with it: ref [5]; cited from earlier work. From the text:
(§1) Antamanide (AA) is a monocyclic, homodetic decapeptide isolated from the poisonous mushroom Amanita phalloides. […] Little is known about the biochemical mechanisms underlying these diverse bioactivities. To explain its antitoxic activity, ...

In series [2] the test system is animal model. The note with it: ref [4]; cited from earlier work.
Description: as §1

The subject of series [3] is hepatocyte membrane transporter for the phallotoxin phalloidin and for the amatoxin alpha-amanitin. The conditions noted are these: proposed; ref [6], [7]; cited from earlier work.
Description: as §1

Series [4] deals with tumour cell models. The conditions noted are these: in vitro; ref [3]; cited from earlier work.
Description: as §1

Regarding Antamanide [AA], the attenuation of edema entry in series [1] is “attenuates IL-2-induced multisystem organ edema”. Moreover, the antitumor action entry in series [2] was “displays an antitumor action in an animal model”. Also, the “antagonism of hepatocyte transporter for phalloidin and alpha-amanitin” value in series [3] is “competitively antagonizes a hepatocyte membrane transporter”. Moreover, the “tumor cell growth inhibition” value in series [4] was “inhibits tumor cell growth in vitro”.
